Measurements from US20150236379A1, “ADDITIVES FOR GALVANIC CELLS” (ROCKWOOD LITHIUM GMBH, priority 2012, published 2015).
Read-outs that look alike come from different tables or passages of the source.

Assays:
[1] = Solubility in conventional battery solvents; assay type: physicochemical
Excerpt: This was not to be expected, since it is known that many Cs salts having large, weakly coordinating anions are relatively poorly soluble in water (A. Nadjafi, Microchim. Acta 1973, 689-696).
The abbreviation BOB stands for bis-(oxalato)borate (C4O8B)^−, BMB for bis-(malonato)borate (C6H4O8B)^−, NMP for N-methylpyrrolidone, EC for ethylene carbonate, DMC for dimethyl carbonate, EMC for ethyl methyl carbonate and PC for propylene carbonate.

[2] = Thermal stability, thermogravimetric experiment under argon flow; assay type: physicochemical
Procedure: In a 1-L round-bottom glass flask, 38.67 g boric acid and […] oxalic acid dihydrate were suspended in 121 g water. 102.9 g cesium carbonate was added in portions, with magnetic stirring (vigorous foaming due to CO2 generation). After the addition was complete, the white suspension was evaporated on a rotary evaporator, initially at 100° C. and 400 mbar. The colorless solid residue was then ground and subjected to final drying at 180° C. and 20 mbar for 3 h. • Yield: 197.3 g of colorless powder (97% of theoretical) • Cs content: 41.0% • […] ^11B=7.4 ppm (solution in DMSO-d6) • Thermal stability: 290° C. (onset of thermal decomposition in the thermogravimetric experiment under argon flow)

[3] = Additive salt solubility in lithium conducting salt electrolyte solutions
[4] = Cs content (FES) in filtered electrolyte solution after stirring with excess additive; assay type: physicochemical; conditions: stirred 24 h, membrane filtered
Procedure: In an Ar-filled glove box, 10 g of an 11 wt.-% LiBOB solution in ethylene carbonate/ethylmethyl carbonate (1:1, wt./wt.) was mixed with 0.32 g CsBOB and magnetically stirred for 24 h. The suspension was then filter-clarified by membrane filtration ([…] PTFE). • Cs content (FES) in the electrolyte solution: 0.05 wt.-%
In an Ar-filled glove box, 10 g of a 10 wt-% […] solution in ethylene carbonate/ethylmethyl carbonate (1:1, wt./wt.) was mixed with 0.47 g CsClO4 and magnetically stirred for 24 h. The suspension was then filter-clarified by membrane filtration ([…] PTFE). • Cs content (FES) in the electrolyte solution: 0.07 wt.-%

[5] = cited from earlier work
[6] = supporting electrolyte LiBOB, 10% EC/EMC
[7] = supporting electrolyte LiPF6, 10% EC/EMC

SMILES	Solubility [1]	Solubility (Wt. %) [1]	Thermal stability (onset of thermal decomposition) [2]	Additive Salt Solubility [3, 6]	Additive Salt Solubility (wt.-%) [3, 6]	Additive Salt Solubility [3, 7]	Additive Salt Solubility (wt.-%) [3, 7]	Cs content (FES) in the electrolyte solution ([4]; 11 wt.-% LiBOB in EC/EMC (1:1, wt./wt.))	Solubility ([1]; solvent EC/DMC (1:1))	Solubility (Wt. %) ([1]; solvent EC/DMC (1:1))	Solubility ([1]; solvent NMP)	Solubility (Wt. %) ([1]; solvent NMP)	Solubility ([1]; solvent PC)	Solubility (Wt. %) ([1]; solvent PC)	solubility in water ([5]; 0° C.)	solubility in water ([5]; 25° C.)	Cs content (FES) in the electrolyte solution ([4]; 10 wt-% LiPF5 in EC/EMC (1:1, wt./wt.))
O=C1CC(=O)O[B-]2(O1)OC(=O)CC(=O)O2.[Cs+] [CsBMB]	50 mM	1.8 Wt. %															
O=C1O[B-]2(OC1=O)OC(=O)C(=O)O2.[Cs+] [CsBOB, Cesium bis(oxalato)borate]			290 °C	4 mM	0.12 wt.-%	40 mM	1.2 wt.-%	0.05 wt.-%	70 mM	1.8 Wt. %	270 mM	7.9 Wt. %	60 mM	1.5 Wt. %			
[Cs+].[O-][Cl+3]([O-])([O-])[O-] [CsClO4, cesium perchlorate]				5 mM	0.12 wt.-%	40 mM	0.9 wt.-%						70 mM	1.3 Wt. %	0.8 g/100 mL	1.97 g/100 mL	0.07 wt.-%
O=C1O[B-]2(OC1=O)OC(=O)C(=O)O2.[Rb+] [RbBOB]	30 mM	0.64 Wt. %		1 mM	0.03 wt.-%	40 mM	1.2 wt.-%										
